Measured values as given in PubChem BioAssay (NCI).
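Interpolation was linear, between the two tested concentrations surrounding the appropriate level; five concentrations were tested over 48 hours in 96-well plates. GI50 marks 50% less growth. At the TGI there is no net growth.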

Tests used:
Test in all cases: NCI tumour cell line growth inhibition, 48 h
[1] = tested on: SF-539 CNS
[2] = tested on: EKVX NSCLC
[3] = tested on: KM12 colon
[4] = tested on: MDA-MB-435
[5] = tested on: OVCAR-4 ovarian
[6] = tested on: HCC-2998 colon
[7] = tested on: HOP-92 NSCLC
[8] = tested on: ACHN renal
[9] = tested on: HT29 colon
[10] = tested on: U251 CNS
[11] = tested on: MCF7 breast
[12] = tested on: PC-3 prostate
[13] = tested on: LOX IMVI melanoma
[14] = tested on: NCI-H226 lung
[15] = tested on: COLO 205 colon
[16] = tested on: SK-MEL-5 melanoma
[17] = tested on: T-47D breast
[18] = tested on: SF-295 CNS
[19] = tested on: DU-145 prostate
[20] = tested on: M14 melanoma
[21] = tested on: SF-268 CNS
[22] = tested on: MDA-MB-231 breast
[23] = tested on: NCI-H522 lung
[24] = tested on: MOLT-4 leukemia
[25] = tested on: RXF 393 renal
[26] = tested on: HL-60(TB) leukemia
[27] = tested on: OVCAR-5 ovarian
[28] = tested on: A498 renal
[29] = tested on: UO-31 renal
[30] = tested on: OVCAR-8 ovarian
[31] = tested on: OVCAR-3 ovarian
[32] = tested on: SK-MEL-2 melanoma
[33] = tested on: SN12C renal
[34] = tested on: SK-MEL-28 melanoma
[35] = tested on: 786-0 renal
[36] = tested on: SR leukemia
[37] = tested on: SW-620 colon
[38] = tested on: NCI/ADR-RES ovarian
[39] = tested on: HCT-15 colon
[40] = tested on: BT-549 breast
[41] = tested on: TK-10 renal
[42] = tested on: HCT-116 colon
[43] = tested on: SK-OV-3 ovarian
[44] = tested on: CAKI-1 renal
[45] = tested on: SNB-19 CNS
[46] = tested on: K-562 leukemia
[47] = tested on: HOP-62 NSCLC
[48] = tested on: RPMI-8226 leukemia
[49] = tested on: UACC-62 melanoma
[50] = tested on: UACC-257 melanoma
[51] = tested on: CCRF-CEM leukemia
[52] = tested on: NCI-H460 lung
[53] = tested on: SNB-75 CNS
[54] = tested on: A549 NSCLC
[55] = tested on: HS 578T breast
[56] = tested on: IGROV1 ovarian

COc1ccc(C2SCC(=O)N2NC(=O)C(O)c2ccccc2)cc1OC (configuration not stated)
GI50 [1]: > 100 µM
TGI [1]: > 100 µM
GI50 [2]: > 100 µM
TGI [2]: > 100 µM
GI50 [3]: > 100 µM
TGI [3]: > 100 µM
GI50 [4]: > 100 µM
TGI [4]: > 100 µM
GI50 [5]: > 100 µM
TGI [5]: > 100 µM
GI50 [6]: > 100 µM
TGI [6]: > 100 µM
GI50 [7]: > 100 µM
TGI [7]: > 100 µM
GI50 [8]: > 100 µM
TGI [8]: > 100 µM
GI50 [9]: > 100 µM
TGI [9]: > 100 µM
GI50 [10]: > 100 µM
TGI [10]: > 100 µM
GI50 [11]: > 100 µM
TGI [11]: > 100 µM
GI50 [12]: > 100 µM
TGI [12]: > 100 µM
GI50 [13]: > 100 µM
TGI [13]: > 100 µM
GI50 [14]: > 100 µM
TGI [14]: > 100 µM
GI50 [15]: > 100 µM
TGI [15]: > 100 µM
GI50 [16]: > 100 µM
TGI [16]: > 100 µM
GI50 [17]: > 100 µM
TGI [17]: > 100 µM
GI50 [18]: > 100 µM
TGI [18]: > 100 µM
GI50 [19]: > 100 µM
TGI [19]: > 100 µM
GI50 [20]: > 100 µM
TGI [20]: > 100 µM
GI50 [21]: > 100 µM
TGI [21]: > 100 µM
GI50 [22]: > 100 µM
TGI [22]: > 100 µM
GI50 [23]: > 100 µM
TGI [23]: > 100 µM
GI50 [24]: > 100 µM
TGI [24]: > 100 µM
GI50 [25]: > 100 µM
TGI [25]: > 100 µM
GI50 [26]: > 100 µM
TGI [26]: > 100 µM
GI50 [27]: > 100 µM
TGI [27]: > 100 µM
GI50 [28]: > 100 µM
TGI [28]: > 100 µM
GI50 [29]: > 100 µM
TGI [29]: > 100 µM
GI50 [30]: > 100 µM
TGI [30]: > 100 µM
GI50 [31]: > 100 µM
TGI [31]: > 100 µM
GI50 [32]: > 100 µM
TGI [32]: > 100 µM
GI50 [33]: > 100 µM
TGI [33]: > 100 µM
GI50 [34]: > 100 µM
TGI [34]: > 100 µM
GI50 [35]: > 100 µM
TGI [35]: > 100 µM
GI50 [36]: 40.9 µM
TGI [36]: > 100 µM
GI50 [37]: > 100 µM
TGI [37]: > 100 µM
GI50 [38]: > 100 µM
TGI [38]: > 100 µM
GI50 [39]: > 100 µM
TGI [39]: > 100 µM
GI50 [40]: > 100 µM
TGI [40]: > 100 µM
GI50 [41]: > 100 µM
TGI [41]: > 100 µM
GI50 [42]: > 100 µM
TGI [42]: > 100 µM
GI50 [43]: > 100 µM
TGI [43]: > 100 µM
GI50 [44]: > 100 µM
TGI [44]: > 100 µM
GI50 [45]: > 100 µM
TGI [45]: > 100 µM
GI50 [46]: > 100 µM
TGI [46]: > 100 µM
GI50 [47]: > 100 µM
TGI [47]: > 100 µM
GI50 [48]: > 100 µM
TGI [48]: > 100 µM
GI50 [49]: > 100 µM
TGI [49]: > 100 µM
GI50 [50]: > 100 µM
TGI [50]: > 100 µM
GI50 [51]: > 100 µM
TGI [51]: > 100 µM
GI50 [52]: > 100 µM
TGI [52]: > 100 µM
GI50 [53]: > 100 µM
TGI [53]: > 100 µM
GI50 [54]: > 100 µM
TGI [54]: > 100 µM
GI50 [55]: > 100 µM
TGI [55]: > 100 µM
GI50 [56]: > 100 µM
TGI [56]: > 100 µM
